Measurements: patent publication US20210278408A1, “METHODS OF TREATMENT OF CANCER WITH SUBSTITUTED PYRROLE AND PYRAZOLE COMPOUNDS AND DIAGNOSIS OF CANCERS SUSCEPTIBLE TO TREATMENT WITH SUBSTITUTED PYRROLE AND PYRAZOLE COMPOUNDS” (Bantam Pharmaceutical, LLC, priority 2018, published 2021)
Like-named read-outs stand apart in the source and are kept apart here.

Test system: 407 cancer cell lines
Test: Cell viability of cancer cell lines (IC50), CellTiter-Glo Viability Assay, 96 h
Type: cell-based
Settings: for IC50: read-out: Absolute IC50
Experimental: Viability was determined by using the 50% inhibitory concentration (IC50) as determined with the CellTiter-Glo® Viability Assay (Promega).
Experiments were initiated by first thawing and equilibrating the CellTiter-Glo® Buffer to room temperature. The lyophilized CellTiter-Glo® Substrate was also equilibrated to room temperature. The lyophilized substrate was reconstituted with the CellTiter-Glo® buffer to form the CellTiter-Glo® Reagent.
Cells were harvested during the logarithmic growth period, counted, and the cell concentration adjusted to 4.44×10^4 cells/mL using culture medium.
Cells were allowed to grow overnight and the following day, the TO reading was obtained by adding 10 μL culture medium to each well of Plate A. The plate was allowed to equilibrate at room temperature for thirty minutes, after which 50 μL CellTiter-Glo® reagent was added to each well. The contents were mixed for 5 min on an orbital shaker to induce cell lysis. Plates were incubated for 20 minutes to stabilize the luminescent signal and the TO luminescence recorded.
Test plate B was incubated for 96 h in the humidified incubator at 37° C. with 5% CO2.
Following the incubation, the plate was equilibrated at room temperature for thirty minutes. CellTiter-Glo® (50 μL) was added to each well of the plate and contents mixed for five minutes on an orbital shaker to induce cell lysis. The luminescent signal was allowed to stabilize at room temperature for 20 minutes and the luminescence recorded.
IC50 (EC50) was calculated using a dose-response curve, fitted using a nonlinear regression model with a sigmoidal dose response. Survival rate was calculated using the formula:
The Surviving rate (%)=(LumTest article−LumMedium control)/(LumNon-treated−LumMedium control)×100%.
Absolute IC50 (EC50) was calculated according to the dose-response curve generated by the statistical software (GraphPad Prism 5.0).

## N.N.[Cl][Pt][Cl] [Cisplatin, reference compound]
22Rv1 cells, 96 h
  IC50: 3050 nM
769-P cells, 96 h
  IC50: 970 nM
786-O cells, 96 h
  IC50: 1430 nM
8505C
  IC50: 2010 nM
A3/KAW cells, 96 h
  IC50: 930 nM
A253 cells, 96 h
  IC50: 1240 nM
A498 cells, 96 h
  IC50: 4280 nM
A549 cells, 96 h
  IC50: 4350 nM
A875 cells, 96 h
  IC50: 1860 nM
A2058, 96 h
  IC50: 770 nM
A2780 cells, 96 h
  IC50: 1380 nM
A2780cis cells, 96 h
  IC50: 5550 nM
A-172 cells, 96 h
  IC50: 8580 nM
A-204 cells, 96 h
  IC50: 1050 nM
A-375, 96 h
  IC50: 1040 nM
A-427 cells, 96 h
  IC50: 5780 nM
A-431, 96 h
  IC50: 2070 nM
A-673 cells, 96 h
  IC50: 260 nM
ACHN cells, 96 h
  IC50: 1740 nM
AGS cells, 96 h
  IC50: 4990 nM
AMO-1 cells, 96 h
  IC50: 1920 nM
AN3 CA, 96 h
  IC50: 3000 nM
ASH-3 cells, 96 h
  IC50: 2720 nM
AsPC-1 cells, 96 h
  % inhibition at top conc.: 78.18%
  IC50: 4940 nM
BT474 cells, 96 h
  IC50: 59000 nM
BT-20 cells, 96 h
  IC50: 2150 nM
BT-483
  % inhibition at top conc.: 75.40%
  IC50: 48200 nM
BT-549 cells, 96 h
  IC50: 4700 nM
BxPC-3
  IC50: 1270 nM
C4-2, 96 h
  IC50: 14900 nM
C666-1 cells, 96 h
  % inhibition at top conc.: 73.03%
  IC50: 18100 nM
C-33 A cells, 96 h
  IC50: 920 nM
CADO-ES1
  IC50: 1030 nM
CAL-27 cells, 96 h
  IC50: 890 nM
CAL-120
  IC50: 7910 nM
CAMA-1, 96 h
  IC50: 9440 nM
CCK-81 cells, 96 h
  IC50: 4510 nM
CCRF-CEM
  IC50: 550 nM
CFPAC-1
  IC50: 4130 nM
COLO 205, 96 h
  IC50: 1970 nM
COLO 320DM, 96 h
  IC50: 3180 nM
COV644 cells, 96 h
  IC50: 14200 nM
Ca Ski cells, 96 h
  IC50: 6440 nM
Caki-2
  IC50: 3350 nM
Calu-1
  IC50: 4770 nM
Calu-3, 96 h
  % inhibition at top conc.: 77.35%
  IC50: 350 nM
Calu-6
  IC50: 710 nM
Caov-3 cells, 96 h
  IC50: 3610 nM
Capan-1
  IC50: 680 nM
Capan-2
  IC50: 21900 nM
CoC1/DDP cells, 96 h
  IC50: 5780 nM
CoC1 cells, 96 h
  IC50: 3240 nM
DLD-1
  IC50: 2430 nM
DMS 53 cells, 96 h
  IC50: 2850 nM
DMS 79
  IC50: 810 nM
DMS 114 cells, 96 h
  IC50: 2020 nM
DOHH-2 cells, 96 h
  IC50: 190 nM
DU 145, 96 h
  IC50: 1150 nM
DU4475
  IC50: 1350 nM
DV-90 cells, 96 h
  IC50: 3250 nM
Daoy cells, 96 h
  IC50: 390 nM
Daudi cells, 96 h
  IC50: 210 nM
Detroit 562 cells, 96 h
  IC50: 1350 nM
DoTc2 4510 cells, 96 h
  IC50: 2840 nM
EBC-1, 96 h
  IC50: 4610 nM
EFM-192A, 96 h
  IC50: 11300 nM
EJM cells, 96 h
  IC50: 6740 nM
EOL-1
  IC50: 460 nM
ES-2 cells, 96 h
  IC50: 3510 nM
FTC-133
  IC50: 980 nM
G-292 clone A141B1 cells, 96 h
  IC50: 1110 nM
GTL-16 cells, 96 h
  IC50: 1090 nM
H4 cells, 96 h
  IC50: 2260 nM
HBL-1
  IC50: 1210 nM
HCC38
  IC50: 2860 nM
HCC 94 cells, 96 h
  IC50: 1980 nM
HCC827 cells, 96 h
  IC50: 8580 nM
HCC1187 cells, 96 h
  IC50: 2010 nM
HCC1428
  IC50: 34900 nM
HCC1500
  IC50: 7640 nM
HCC1569
  IC50: 5780 nM
HCC1806 cells, 96 h
  IC50: 2230 nM
HCC1937
  IC50: 5070 nM
HCC1954
  IC50: 7180 nM
HCC2218, 96 h
  IC50: 10800 nM
HCC2935
  IC50: 51700 nM
HCC4006, 96 h
  IC50: 5760 nM
HCC-78 cells, 96 h
  IC50: 2250 nM
HCCC-9810
  IC50: 2960 nM
HCCLM3 cells, 96 h
  % inhibition at top conc.: 60.88%
  IC50: 10800 nM
HCT-8
  IC50: 9040 nM
HCT-15
  IC50: 3260 nM
HCT-116
  IC50: 4030 nM
HEC-1-A cells, 96 h
  % inhibition at top conc.: 83.97%
  IC50: 13300 nM
HEC-1-B cells, 96 h
  IC50: 10600 nM
HEL 92.1.7
  IC50: 480 nM
HGC-27 cells, 96 h
  IC50: 770 nM
HL-60
  IC50: 1150 nM
HLE cells, 96 h
  IC50: 2480 nM
HM-7, 96 h
  IC50: 6260 nM
HPAC
  IC50: 14300 nM
HT-3 cells, 96 h
  IC50: 4850 nM
HT-29
  IC50: 2890 nM
HT-55
  IC50: 17700 nM
HT-1080, 96 h
  IC50: 3530 nM
HT-1376
  IC50: 3280 nM
HeLa 229 cells, 96 h
  IC50: 7250 nM
HeLa cells, 96 h
  IC50: 280 nM
Hep3B
  IC50: 3080 nM
Hep G2/C3A, 96 h
  IC50: 1840 nM
Hep G2
  IC50: 4510 nM
HuCCT1, 96 h
  IC50: 10000 nM
HuT 78
  IC50: 500 nM
IHH-4 cells, 96 h
  IC50: 2650 nM
IM95m cells, 96 h
  IC50: 8430 nM
IMR-32 cells, 96 h
  IC50: 60 nM
Ishikawa, 96 h
  IC50: 2750 nM
J82 cells, 96 h
  IC50: 310 nM
JAR
  IC50: 610 nM
JEG-3 cells, 96 h
  IC50: 520 nM
JHH-1 cells, 96 h
  IC50: 6040 nM
JHH-4 cells, 96 h
  IC50: 1070 nM
JHH-5 cells, 96 h
  IC50: 850 nM
JHH-7 cells, 96 h
  IC50: 1830 nM
JIMT-1 cells, 96 h
  IC50: 6960 nM
JJN-3 cells, 96 h
  IC50: 4080 nM
JVM-2
  IC50: 1460 nM
JVM-3
  IC50: 1120 nM
JVM-13
  IC50: 540 nM
JeKo-1 cells, 96 h
  IC50: 1360 nM
Jurkat clone E6-1
  IC50: 470 nM
K-562
  IC50: 5730 nM
KARPAS-299 cells, 96 h
  IC50: 890 nM
KARPAS-422
  IC50: 1110 nM
KATO III, 96 h
  % inhibition at top conc.: 67.05%
  IC50: 10500 nM
KG-1
  IC50: 2020 nM
KHOS/NP cells, 96 h
  IC50: 1330 nM
KMH-2 cells, 96 h
  IC50: 2650 nM
KMS-11
  IC50: 2160 nM
KP4 cells, 96 h
  IC50: 6250 nM
KPL-4
  IC50: 1370 nM
KYSE-70
  IC50: 6110 nM
KYSE-150
  IC50: 1790 nM
KYSE-270
  IC50: 2150 nM
KYSE-410 cells, 96 h
  IC50: 13400 nM
Kasumi-1
  IC50: 2920 nM
L-82
  IC50: 1160 nM
L-363
  IC50: 1830 nM
LN-18 cells, 96 h
  IC50: 700 nM
LN-229 cells, 96 h
  IC50: 7680 nM
LNCaP clone FGC, 96 h
  IC50: 3430 nM
LP-1
  IC50: 7620 nM
LS123 cells, 96 h
  IC50: 12000 nM
LS 180
  IC50: 6270 nM
LS411N
  IC50: 15100 nM
LS513 cells, 96 h
  IC50: 2810 nM
LS1034 cells, 96 h
  IC50: 6520 nM
Li-7
  IC50: 630 nM
LoVo
  IC50: 8270 nM
M059K cells, 96 h
  IC50: 2660 nM
MC/CAR cells, 96 h
  IC50: 3150 nM
MCF7
  IC50: 11800 nM
MDA-MB-231
  IC50: 23000 nM
MDA-MB-415
  IC50: 37900 nM
MDA-MB-436, 96 h
  IC50: 500 nM
MDA-MB-453
  IC50: 4860 nM
MDA-MB-468 cells, 96 h
  IC50: 270 nM
ME-180 cells, 96 h
  IC50: 840 nM
MEG-01
  IC50: 1900 nM
MES-SA cells, 96 h
  IC50: 660 nM
MES-SA/DX5 cells, 96 h
  IC50: 2770 nM
MFE-296 cells, 96 h
  IC50: 3310 nM
MHCC97-H
  % inhibition at top conc.: 83.30%
  IC50: 7890 nM
MIA PaCa-2
  IC50: 2740 nM
MKN1 cells, 96 h
  IC50: 1460 nM
MKN45, 96 h
  IC50: 5470 nM
MKN74 cells, 96 h
  % inhibition at top conc.: 84.20%
  IC50: 11200 nM
ML-2
  IC50: 1210 nM
MM.1R
  IC50: 810 nM
MM.1S
  IC50: 1020 nM
MOLM-13 cells, 96 h
  IC50: 780 nM
MOLM-16 cells, 96 h
  IC50: 870 nM
MOLP8 cells, 96 h
  IC50: 1750 nM
MS751 cells, 96 h
  IC50: 4610 nM
